Reference: patent US20240425482A1, “PYRROLIDINE DERIVATIVES AS DDRS INHIBITORS” (CHIESI FARMACEUTICI S.P.A., priority 2021, published 2024)

Key:
[1] = target: DDR1 (Homo sapiens (Human), UniProt Q08345); test: DDR1 LanthaScreen Europium Kinase Binding assay; conditions: binding; 5 nM DDR1, 20 nM Kinase Tracer 178, 1 hour at rt; Ki from IC50 by Cheng-Prusoff; read-out: Ki DDR1
Experimental: (§1) DDR1 and DDR2 binding assays were performed using Life Technologies LanthaScreen™ Europium Kinase Binding assay. The compounds were incubated with 5 nM DDR1 (Carna Biosciences) or 5 nM DDR2 (Life Technologies) for 1 hour at rt in white 384-well OptiPlate (PerkinElmer), containing 20 nM or 10 nM Kinase Tracer 178 respectively and 2 nM Europium labelled anti-GST antibody (Life Technologies) in assay buffer (50 mM HEPES pH 7.5, 10 mM MgCI2, 1 mM EGTA and 0.01% BRIJ35). The ratio of fluorescence emission 665 nm/615 nm after excitation at 340 nm was obtained using the Tecan Spark 20M plate reader. IC50 values were determined in GraphPad Prism 7.0 software, using 4 parameter model: log(inhibitor) vs. response. IC50 values were converted in Ki using the Cheng-Prusoff equation (Ki=IC50/(1+[Tracer]/Kd).
(§2) Compounds C1 and C2 were tested in the same binding assay described above.

[2] = target: DDR2 (Homo sapiens (Human), UniProt Q16832); test: DDR2 LanthaScreen Europium Kinase Binding assay; conditions: binding; 5 nM DDR2, 10 nM Kinase Tracer 178, 1 hour at rt; Ki from IC50 by Cheng-Prusoff; read-out: Ki DDR2
Sequence of DDR2 (Q16832 22-855): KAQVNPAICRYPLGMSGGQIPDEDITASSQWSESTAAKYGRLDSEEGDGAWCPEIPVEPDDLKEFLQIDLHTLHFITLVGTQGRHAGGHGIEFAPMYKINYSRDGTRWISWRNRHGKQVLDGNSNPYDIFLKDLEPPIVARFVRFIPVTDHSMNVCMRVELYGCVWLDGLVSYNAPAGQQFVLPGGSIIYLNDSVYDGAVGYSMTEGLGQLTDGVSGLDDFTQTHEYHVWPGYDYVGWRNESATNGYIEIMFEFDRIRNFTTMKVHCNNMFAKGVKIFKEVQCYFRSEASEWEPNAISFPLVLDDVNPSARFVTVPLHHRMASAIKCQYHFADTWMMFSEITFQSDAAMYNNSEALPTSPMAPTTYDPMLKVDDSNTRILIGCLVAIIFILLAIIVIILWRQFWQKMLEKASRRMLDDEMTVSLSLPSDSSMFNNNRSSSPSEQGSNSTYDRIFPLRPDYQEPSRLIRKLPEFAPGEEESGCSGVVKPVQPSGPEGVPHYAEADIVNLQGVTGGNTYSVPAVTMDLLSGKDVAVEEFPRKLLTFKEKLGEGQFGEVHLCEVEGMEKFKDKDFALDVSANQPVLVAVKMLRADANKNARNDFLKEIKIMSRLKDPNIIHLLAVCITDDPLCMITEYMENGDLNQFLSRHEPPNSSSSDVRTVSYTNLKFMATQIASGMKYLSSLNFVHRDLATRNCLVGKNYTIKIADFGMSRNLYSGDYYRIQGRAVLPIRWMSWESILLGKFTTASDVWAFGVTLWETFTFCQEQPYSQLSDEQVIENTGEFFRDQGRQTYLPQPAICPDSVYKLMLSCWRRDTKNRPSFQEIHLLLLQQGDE
Experimental: as §1, §2

Sequence of DDR1 (Q08345 19-913): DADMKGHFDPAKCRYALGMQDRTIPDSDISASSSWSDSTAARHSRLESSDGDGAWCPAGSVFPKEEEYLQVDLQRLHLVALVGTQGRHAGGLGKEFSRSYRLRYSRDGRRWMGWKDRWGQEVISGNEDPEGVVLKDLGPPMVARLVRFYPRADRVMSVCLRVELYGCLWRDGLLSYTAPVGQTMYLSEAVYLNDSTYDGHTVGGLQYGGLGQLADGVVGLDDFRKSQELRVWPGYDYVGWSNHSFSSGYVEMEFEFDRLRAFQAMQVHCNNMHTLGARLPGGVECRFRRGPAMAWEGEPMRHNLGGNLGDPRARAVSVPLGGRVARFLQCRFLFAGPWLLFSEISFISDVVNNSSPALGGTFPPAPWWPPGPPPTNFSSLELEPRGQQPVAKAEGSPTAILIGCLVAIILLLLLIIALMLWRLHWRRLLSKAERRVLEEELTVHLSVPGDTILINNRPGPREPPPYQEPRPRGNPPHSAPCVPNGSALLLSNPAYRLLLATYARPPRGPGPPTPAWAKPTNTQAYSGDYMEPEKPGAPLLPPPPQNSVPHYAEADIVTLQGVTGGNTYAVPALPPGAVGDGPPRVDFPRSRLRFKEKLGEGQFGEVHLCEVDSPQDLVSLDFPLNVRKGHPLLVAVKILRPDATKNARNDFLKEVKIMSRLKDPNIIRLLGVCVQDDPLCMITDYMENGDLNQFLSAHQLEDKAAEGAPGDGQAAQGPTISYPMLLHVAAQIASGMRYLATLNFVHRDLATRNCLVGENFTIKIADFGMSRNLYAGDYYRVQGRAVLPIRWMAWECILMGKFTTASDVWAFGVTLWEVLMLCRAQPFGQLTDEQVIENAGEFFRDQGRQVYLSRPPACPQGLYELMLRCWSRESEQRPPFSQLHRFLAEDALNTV

SMILES | Ki [1] | Ki [2]
Cc1ccc(C(=O)Nc2cccc(C(F)(F)F)c2)cc1[C@@H]1CCN(c2cncc(N3CCC(F)(F)CC3)c2)C1 [Example 31, (S)-3-(1-(5-(4,4-difluoropiperidin-1-yl)pyridin-3-yl)pyrrolidin-3-yl)-4-methyl-N-(3-(trifluoromethyl)phenyl)benzamide] | < 10 nM | > 60 nM
CNC(=O)c1cc(N2CC[C@@H](c3cc(C(=O)Nc4cccc(C(F)(F)F)c4)ccc3C)C2)ccn1 [Example 25, (S)-N-methyl-4-(3-(2-methyl-5-((3-(trifluoromethyl)phenyl)carbamoyl)phenyl)pyrrolidin-1-yl)picolinamide] | < 10 nM | < 10 nM
Cc1ccc(C(=O)Nc2cccc(C(F)(F)F)c2)cc1[C@@H]1CCN(c2cncc(N3CC4(COC4)C3)c2)C1 [Example 37, (S)-3-(1-(5-(2-oxa-6-azaspiro[3.3]heptan-6-yl)pyridin-3-yl)pyrrolidin-3-yl)-4-methyl-N-(3-(trifluoromethyl)phenyl)benzamide] | < 10 nM | 10 to 25 nM
Cc1ccc(C(=O)Nc2cccc(C(F)(F)F)c2)cc1C1CCN(c2ccnc(C#N)c2)C1 (stereo not drawn) [Example 24, 3-(1-(2-cyanopyridin-4-yl)pyrrolidin-3-yl)-4-methyl-N-(3-(trifluoromethyl)phenyl)benzamide] | 25 to 60 nM | > 60 nM

Continued, values first:

Ki [1] | Ki [2] | SMILES
< 10 nM | 10 to 25 nM | Cc1ccc(C(=O)Nc2cccc(C(F)(F)F)c2)cc1[C@H]1CCN(c2cncc(C(N)=O)c2)C1 [Example 18, (R)-5-(3-(2-methyl-5-((3-(trifluoromethyl)phenyl)carbamoyl)phenyl)pyrrolidin-1-yl)nicotinamide]
< 10 nM | 25 to 60 nM | CNC(=O)c1cc(N2CC[C@H](c3cc(C(=O)Nc4cccc(C(F)(F)F)c4)ccc3C)C2)ccn1 [Example 27, (R)-N-methyl-4-(3-(2-methyl-5-((3-(trifluoromethyl)phenyl)carbamoyl)phenyl)pyrrolidin-1-yl)picolinamide]
< 10 nM | 10 to 25 nM | Cc1ccc(C(=O)Nc2ccc(CN(C)C)c(C(F)(F)F)c2)cc1[C@@H]1CCN(c2cncc(C(N)=O)c2)C1 [Example 58, (S)-5-(3-(5-((4-((dimethylamino)methyl)-3-(trifluoromethyl)phenyl)carbamoyl)-2-methylphenyl)pyrrolidin-1-yl)nicotinamide]
10 to 25 nM | 25 to 60 nM | Cc1ccc(C(=O)Nc2cccc(C(F)(F)F)c2)cc1C1CCN(c2cncc(C#N)c2)C1 (stereo not drawn) [Example 4, 3-(1-(5-cyanopyridin-3-yl)pyrrolidin-3-yl)-4-methyl-N-(3-(trifluoromethyl)phenyl)benzamide]
< 10 nM | < 10 nM | CNC(=O)c1cc(N2CCC(c3cc(C(=O)Nc4cccc(C(F)(F)F)c4)ccc3C)C2)ccn1 (stereo not drawn) [Example 1, N-methyl-4-(3-(2-methyl-5-((3-(trifluoromethyl)phenyl)carbamoyl)phenyl)pyrrolidin-1-yl)picolinamide]
